Tested on: RAW264.7
Assay: Antiinflammatory activity against mouse RAW264.7 cells assessed as inhibition of LPS-induced NO production preincubated for 1 hr followed by LPS stimulation and measured after 36 hrs by Griess reagent based assay
Format: functional, cell-based

IC50: 48.3 µM
Structure (SMILES): C[C@@H]1[C@H](OCCc2ccccc2)O[C@H](C)[C@H]1CO

— ChEMBL document CHEMBL5143697, “Phenethoxy Derivatives with Anti-inflammatory Activities from the Betelnut Endophytic Trichoderma asperellum G10” (J Nat Prod, 2022)
